PubChem BioAssay (NCI)
“And” between values parts separate entries of the source, which are not always exact repeats. Identical values can stand only once.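 96-well plates; 48 h exposure; 5 concentrations. Endpoints by linear interpolation between flanking doses. Not reached: highest tested concentration assigned. At the GI50, growth is halved. TGI marks complete inhibition of growth.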

Legend:
Assay in all cases: NCI-60 cell line screen, 48 h
[1] = tested on: PC-3 prostate
[2] = tested on: UO-31 renal
[3] = tested on: HT29 colon
[4] = tested on: SR leukemia
[5] = tested on: HCT-116 colon
[6] = tested on: T-47D breast
[7] = tested on: SK-MEL-5 melanoma
[8] = tested on: HL-60(TB) leukemia
[9] = tested on: UACC-62 melanoma
[10] = tested on: A549 NSCLC

| Compound | GI50 [1] | TGI [1] | GI50 [2] | TGI [2] | GI50 [3] | TGI [3] | GI50 [4] | TGI [4] | GI50 [5] | TGI [5] | GI50 [6] | TGI [6] | GI50 [7] | TGI [7] | GI50 [8] | TGI [8] | GI50 [9] | TGI [9] | GI50 [10] | TGI [10] |
| --- | --- | --- | --- | --- | --- | --- | --- | --- | --- | --- | --- | --- | --- | --- | --- | --- | --- | --- | --- | --- |
| C/C1=C/C(=O)O[C@@H]2C[C@@H](CC[C@H](C)/C=C\C=C\CC1)O[C@@](O)([C@@H]1CSC(=O)N1CO)C2 | 0.0367 µM | 3.13 µM | 0.0241 µM | 0.132 µM | 0.0562 µM | 20.3 µM | 0.154 µM | 16 µM | 0.194 µM | 20 µM | 0.0593 µM | 47.6 µM | 0.222 µM | 13.7 µM | 0.253 µM | 18.8 µM | 0.0863 µM | 26.2 µM | 0.0465 µM | > 46 µM |
| C=C(C)[C@@H]1CC[C@]2(C(N)=O)CC[C@]3(C)[C@H](CC[C@@H]4[C@@]5(C)CC[C@H](O)C(C)(C)[C@@H]5CC[C@]43C)[C@@H]12 | 2.83 µM | 14.7 µM | 1.72 µM | 3.34 µM | 2.56 µM | 7.42 µM | 4.14 µM | 23.5 µM | 1.97 µM | 3.96 µM | 4.55 µM | 26.9 µM | 5.22 µM | 19.2 µM | 3.59 µM | 17.5 µM | 4.2 µM | 23.1 µM | 2.11 µM | 5.39 µM |
| COC(=O)[C@H]1C(=O)[C@@]2(C)[C@H]([C@H](OC(=O)c3ccccc3)[C@]3(O)C[C@H](OC(=O)[C@H](O)[C@@H](NC(=O)c4ccc(F)cc4)c4ccccc4)C(C)=C1C3(C)C)[C@]1(OC(C)=O)CO[C@@H]1C[C@@H]2O | 0.0164 µM | > 25 µM | 1.89 µM | > 25 µM | 0.00378 µM | > 25 µM | 0.00428 µM | 1.69 µM | 0.00432 µM | > 25 µM | 0.0106 µM | > 25 µM | 0.0104 µM | > 9.79 µM | 0.00614 µM | 0.0184 µM | 0.0122 µM | > 25 µM | 0.0116 µM | > 25 µM |
| C[C@@H](N)C1CCC(C(=O)Nc2ccncc2)CC1 (some centres not stated) | > 100 µM | > 100 µM | > 34.1 µM | > 100 µM | > 100 µM | > 100 µM | 36.4 µM | > 100 µM | > 100 µM | > 100 µM | > 100 µM | > 100 µM | > 100 µM | > 100 µM | > 100 µM | > 100 µM | > 100 µM | > 100 µM | > 100 µM | > 100 µM |
| COC(=O)[C@H]1[C@@H](O)[C@@]2(O)c3c(OC)cc(O[C@@H]4O[C@@H]([C@H](O)CO)CO[C@H]4OC)cc3O[C@@]2(c2ccc(OC)cc2)[C@@H]1c1ccccc1 | 0.00405 µM | 0.0338 µM | 0.136 µM | 0.755 µM | 0.003 µM | 0.0142 µM | 0.00341 µM | 0.147 µM | 0.00371 µM | – | 0.00226 µM | 0.0199 µM | 0.00662 µM | 0.0494 µM | 0.00327 µM | 0.0185 µM | 0.00694 µM | 0.0322 µM | 0.00463 µM | 0.0457 µM |
| COc1cc2c(F)nccc2cc1C(=O)N[C@@H](c1ccc(F)c(Cl)c1)[C@@H]1C[C@@H](O)CN1 | 0.54 µM | > 43.3 µM | 0.491 µM | 15.4 µM | 2.35 µM | 19.6 µM | – | > 41.9 µM | 3.31 µM | 17.2 µM | 0.0552 µM | 21.3 µM | 14.7 µM | 28.1 µM | 2.11 µM | 5.61 µM | 0.514 µM | 16.9 µM | 3.14 µM | 39.6 µM |
| O=C(c1ccc(OCCN2CCCCC2)cc1)c1c(-c2ccc(O)cc2)sc2cc(O)ccc12 | 3.9 µM and 11.7 µM | 18.9 µM and 35.7 µM | 10.1 µM and 9.8 µM | 22.3 µM and 27.7 µM | 14.9 µM and 4.1 µM | 32.3 µM and 33.4 µM | 3.16 µM and 1.88 µM | – | 3.68 µM and 8.5 µM | 14 µM and 42.7 µM | 2.77 µM and 5.89 µM | 20 µM and > 50.2 µM | 9.51 µM and 5.32 µM | 21.4 µM and 16.9 µM | 2.02 µM | 12.7 µM | 12 µM and 13.7 µM | 25.8 µM and 27.2 µM | 13.2 µM and 14.3 µM | 29.3 µM and 37.9 µM |
| NC(=O)C1c2ccccc2C=Cc2ccccc21 | > 100 µM | > 100 µM | > 100 µM | > 100 µM | > 100 µM | > 100 µM | > 100 µM | > 100 µM | > 100 µM | > 100 µM | > 100 µM | > 100 µM | > 100 µM | > 100 µM | > 100 µM | > 100 µM | > 100 µM | > 100 µM | > 100 µM | > 100 µM |
| Nc1ccccc1SC(CC(=O)c1ccccc1)c1ccc([N+](=O)[O-])cc1 (configuration not stated) | 10.3 µM | 22.4 µM | 7.75 µM | 21.5 µM | 4.3 µM | 14.6 µM | 2.57 µM | 7.38 µM | 1.67 µM | 3.16 µM | 12.1 µM | 36.3 µM | 15.6 µM | 29.4 µM | 12.6 µM | 35.2 µM | 12.1 µM | 24.5 µM | 16.6 µM | 32.6 µM |
| Cc1nc2ccccn2c1NC(=O)NNC(=S)Nc1ccc(Br)cc1 | 24.5 µM | > 100 µM | 82.5 µM | > 100 µM | 24.9 µM | 69.8 µM | 18.9 µM | 55.6 µM | 22.9 µM | 62.9 µM | 48.2 µM | > 100 µM | 47.7 µM | > 100 µM | 24.4 µM | > 100 µM | 27.8 µM | > 100 µM | 71.6 µM | > 100 µM |
| CC1=CC(=O)CC(C)(C)C1(O)/C=C/C(C)=C/C(=O)O (configuration not stated) | – | > 100 µM | – | > 100 µM | – | > 100 µM | – | > 100 µM | – | > 100 µM | – | > 100 µM | – | > 100 µM | – | > 100 µM | – | > 100 µM | – | > 100 µM |
| C[C@H]1CC[C@H]([C@@H](C)[C@H]2[C@@H](O)C[C@H]3[C@@H]4CC[C@H]5C[C@@H](O)CC[C@]5(C)[C@H]4CC[C@]23C)NC1 | – | 31 µM | – | 30.9 µM | – | 34.2 µM | – | 24.7 µM | – | 31.7 µM | – | 30.8 µM | – | 44 µM | – | 20.2 µM | – | 28.5 µM | – | 51 µM |
